Source: patent publication US5776950
Like-named read-outs stand apart in the source and are kept apart here.

Conditions: amide bond, 24-membered ring
[1] = 2-chloro-1-methylpyridinium iodide/TEA, DCM, 4.2 mM, 25.0 °C

Q: For “H-MeLeu-dLac-MeLeu-dPhLac-MeLeu-[3-oxy-2-oxopiperidin-1-yl (delta-lactam, replaces Lac + N-Me)]Leu-dPhLac-OH?”, which ring closure, isolated yield (the molecule shown is the open-chain precursor, BOP-Cl/DIEA, CH2Cl2, 0.99 mM) is on record?
A: The ring closure, isolated yield was 65%.

Q: For “cyclo(D-2-hydroxy-3-phenylpropanoyl-L-prolyl-D-2-hydroxypropanoyl-N-methyl-L-leucyl-D-2-hydroxy-3-phenylpropanoyl-N-methyl-L-leucyl-D-2-hydroxypropanoyl-N-methyl-L-leucyl)”, which ring closure, isolated yield (2-chloro-1-methylpyridinium iodide/TEA, DCM, 5.9 mM, 25.0 °C) is on record?
A: The ring closure, isolated yield was 12%.

Q: For “H-MeLeu-dLac-MeLeu-dLac-MeLeu-[3-oxy-2-oxopiperidin-1-yl (delta-lactam, replaces Lac + N-Me)]Leu-dPhLac-OH?”, which ring closure, isolated yield (the molecule shown is the open-chain precursor, BOP-Cl/DIEA, CH2Cl2, 0.98 mM) is on record?
A: The ring closure, isolated yield was 48%.

Q: Which ring closure, isolated yield (2-chloro-1-methylpyridinium iodide/TEA, DCM, 6.0 mM, 25.0 °C) does the source give for “cylo(D-2-hydroxypropanoyl-L-N-α-tetrahydroquinoline-3-carboxyl-D-2-hydroxypropanoyl-N-methyl-L-leucyl-D-2-hydroxypropanoyl-N-methyl-L-leucyl-D- 2-hydroxypropanoyl-N-methyl-L-leucyl)” here?
A: The ring closure, isolated yield was 50%.

Q: With “cyclo(D-2-hydroxypropanoyl-L-N-δ-tetrahydroquinoline-3-carboxyl-D-2- hydroxy-3-phenylpropanoyl-N-methyl-L-leucyl-D-2-hydroxypropanoyl-N-methyl-L-leucyl-D-2-hydroxy-3-phenylpropanoyl-N-methyl-L-leucyl)” as the substance, how does the ring closure, isolated yield [1] read?
A: The ring closure, isolated yield was 42%.

Q: With “cvlo(D-2-hydroxypropanoyl-L-pipecolyl-D-2-hydroxypropanoyl-N-methyl-L-leucyl-D-2-hydroxypropanoyl-N-methyl-L-leucyl-D-2-hydroxypropanoyl-N-methyl-L-leucyl)” as the substance, how does the ring closure, isolated yield (2-chloro-1-methylpyridinium iodide/TEA, DCM, 4.75 mM, 25.0 °C) read?
A: The ring closure, isolated yield was 34%.

Q: For “cyclo(D-2-hydroxy-3-phenylpropanoyl-L-pipecolyl-D-2-hydroxypropanoyl-N-methyl-L-leucyl-D-2-hydroxy-3-phenylpropanoyl-N-methyl-L-leucyl-D-2-hydroxypropanoyl-N-methyl-L-leucyl)”, which ring closure, isolated yield [1] is on record?
A: Its ring closure, isolated yield is 50%.
